PMC8185074, “Anchor extension: a structure-guided approach to design cyclic peptides targeting enzyme active sites” (Nature Communications, 2021)
Peptide text beside a SMILES is read from it.

What was measured:
Assay type in all cases: biochemical
HDAC2 [1] = target: T1, HDAC2 (Homo sapiens, UniProt Q92769); experiment: HDAC2 inhibition, full IC50 measurement (Reaction Biology; fluorogenic p53 peptide RHKK(Ac)AMC)
T1 construct: purchased Reaction Biology Corporation (assay run by the CRO)
Method in brief: (§1)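 Test peptides were dispensed acoustically with enzyme in 50 mM Tris-HCl pH 8.0, 137 mM NaCl, 2.7 mM KCl, 1 mM MgCl2, 1 mg/ml BSA and 1% DMSO. After adding 50 μM RHKK(Ac)AMC, reactions ran 1 h at 30 °C, then developer was added.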

HDAC2 [2] = target: T1, HDAC2; experiment: Initial HDAC2 IC50 estimate (BPS Biosciences HDAC fluorogenic assay kit); details: Supplementary Dataset 2; read-out: HDAC2 activity (initial activity)
Method in brief: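 Inhibition measured by kit-based fluorogenic HDAC activity assays, with each point in duplicate or triplicate. Values come from a full 1 µM–100 pM series (1:10 steps) or are range estimates from just 20 nM and 200 nM.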

HDAC1 = target: T2, HDAC1 (Homo sapiens, UniProt Q13547); experiment: HDAC1 inhibition, full IC50 measurement (Reaction Biology; fluorogenic p53 peptide RHKK(Ac)AMC); details: for HDAC1 activity raw data (signal): t1/t2 replicates
T2 construct: purchased Reaction Biology Corporation (assay run by the CRO)
Method in brief: as §1

T1 sequence (Q92769 whole entry): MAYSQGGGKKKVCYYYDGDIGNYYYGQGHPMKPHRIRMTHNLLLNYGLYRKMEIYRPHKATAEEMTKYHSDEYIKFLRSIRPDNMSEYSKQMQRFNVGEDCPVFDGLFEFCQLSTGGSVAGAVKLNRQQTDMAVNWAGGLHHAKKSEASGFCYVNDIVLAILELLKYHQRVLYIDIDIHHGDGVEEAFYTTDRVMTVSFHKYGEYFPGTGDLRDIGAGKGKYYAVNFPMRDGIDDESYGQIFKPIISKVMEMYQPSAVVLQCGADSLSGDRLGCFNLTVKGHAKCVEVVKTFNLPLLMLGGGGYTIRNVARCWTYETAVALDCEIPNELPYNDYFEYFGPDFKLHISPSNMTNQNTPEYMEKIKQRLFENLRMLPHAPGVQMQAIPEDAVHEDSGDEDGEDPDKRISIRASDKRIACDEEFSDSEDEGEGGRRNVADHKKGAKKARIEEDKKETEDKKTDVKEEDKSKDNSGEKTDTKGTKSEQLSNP
T2 sequence (Q13547 whole entry): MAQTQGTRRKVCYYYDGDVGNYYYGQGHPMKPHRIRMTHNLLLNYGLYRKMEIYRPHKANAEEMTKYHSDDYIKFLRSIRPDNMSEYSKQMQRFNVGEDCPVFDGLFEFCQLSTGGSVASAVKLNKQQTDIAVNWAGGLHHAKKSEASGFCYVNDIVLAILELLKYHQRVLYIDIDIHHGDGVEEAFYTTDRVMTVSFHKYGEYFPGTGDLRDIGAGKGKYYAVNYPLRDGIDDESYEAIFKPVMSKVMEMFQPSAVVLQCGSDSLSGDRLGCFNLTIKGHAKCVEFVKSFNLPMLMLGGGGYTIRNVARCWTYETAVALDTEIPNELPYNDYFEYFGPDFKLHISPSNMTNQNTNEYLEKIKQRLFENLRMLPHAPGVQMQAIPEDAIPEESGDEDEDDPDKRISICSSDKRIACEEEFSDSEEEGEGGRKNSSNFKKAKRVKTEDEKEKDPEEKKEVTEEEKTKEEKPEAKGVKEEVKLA

## CC(C)[C@@H]1NC(=O)[C@H](CCCNC(=N)N)NC(=O)[C@@H](CC(=O)O)NC(=O)[C@H](CO)NC(=O)[C@@H](CO)NC(=O)[C@@H](CCC(=O)O)NC(=O)[C@H](Cc2ccc(O)cc2)NC(=O)[C@H](CCCCCS)NC1=O [des4.2.0, SHA-Tyr-dGlu-dSer-Ser-dAsp-Arg-Val] (HELM PEPTIDE1{R.V.[O=C([C@H](CCCCCS)N[*:1])[*:2]].Y.[dE].[dS].S.[dD]}$PEPTIDE1,PEPTIDE1,1:R1-8:R2$$$V2.0)
HDAC2 [1]; Conc. 1.00E-05 M, t1
  HDAC2 activity raw data (signal): 20394
HDAC2 [1]; Conc. 1.00E-05 M, t2
  HDAC2 activity raw data (signal): 38836
HDAC2 [1]; Conc. 1.11E-06 M, t1
  HDAC2 activity raw data (signal): 480221
HDAC2 [1]; Conc. 1.11E-06 M, t2
  HDAC2 activity raw data (signal): 475819
HDAC2 [1]; Conc. 1.23E-07 M, t1
  HDAC2 activity raw data (signal): 1083936
HDAC2 [1]; Conc. 1.23E-07 M, t2
  HDAC2 activity raw data (signal): 1073630
HDAC2 [1]; Conc. 1.37E-08 M, t1
  HDAC2 activity raw data (signal): 1586330
HDAC2 [1]; Conc. 1.37E-08 M, t2
  HDAC2 activity raw data (signal): 1580365
HDAC2 [1]; Conc. 1.52E-09 M, t1
  HDAC2 activity raw data (signal): 1730890
HDAC2 [1]; Conc. 1.52E-09 M, t2
  HDAC2 activity raw data (signal): 1745453
HDAC2 [1]; Conc. 3.33E-06 M, t1
  HDAC2 activity raw data (signal): 208395
HDAC2 [1]; Conc. 3.33E-06 M, t2
  HDAC2 activity raw data (signal): 205670
HDAC2 [1]; Conc. 3.70E-07 M, t1
  HDAC2 activity raw data (signal): 726508
HDAC2 [1]; Conc. 3.70E-07 M, t2
  HDAC2 activity raw data (signal): 767311
HDAC2 [1]; Conc. 4.12E-08 M, t1
  HDAC2 activity raw data (signal): 1358432
HDAC2 [1]; Conc. 4.12E-08 M, t2
  HDAC2 activity raw data (signal): 1262650
HDAC2 [1]; Conc. 4.57E-09 M, t1
  HDAC2 activity raw data (signal): 1679024
HDAC2 [1]; Conc. 4.57E-09 M, t2
  HDAC2 activity raw data (signal): 1646125
HDAC2 [1]; Conc. 5.08E-10 M, t1
  HDAC2 activity raw data (signal): 1775852
HDAC2 [1]; Conc. 5.08E-10 M, t2
  HDAC2 activity raw data (signal): 1816576
HDAC2 [1]; figure legends, Supp. Table 1, read-out: HDAC2 IC50
  IC50: 214 nM
HDAC2 [2]
  IC50: 200 nM
HDAC1; Supp. Table 1
  IC50: 58.2 nM
HDAC1; peptide conc. 1.00E-05 M, listed as des4.2.0_t1
  HDAC1 activity raw data (signal): 11630
HDAC1; peptide conc. 1.00E-05 M, listed as des4.2.0_t2
  HDAC1 activity raw data (signal): 12995
HDAC1; peptide conc. 1.11E-06 M, listed as des4.2.0_t1
  HDAC1 activity raw data (signal): 76613
HDAC1; peptide conc. 1.11E-06 M, listed as des4.2.0_t2
  HDAC1 activity raw data (signal): 123433
HDAC1; peptide conc. 1.23E-07 M, listed as des4.2.0_t1
  HDAC1 activity raw data (signal): 411114
HDAC1; peptide conc. 1.23E-07 M, listed as des4.2.0_t2
  HDAC1 activity raw data (signal): 418507
HDAC1; peptide conc. 1.37E-08 M, listed as des4.2.0_t1
  HDAC1 activity raw data (signal): 880188
HDAC1; peptide conc. 1.37E-08 M, listed as des4.2.0_t2
  HDAC1 activity raw data (signal): 934141
HDAC1; peptide conc. 1.52E-09 M, listed as des4.2.0_t1
  HDAC1 activity raw data (signal): 1108126
HDAC1; peptide conc. 1.52E-09 M, listed as des4.2.0_t2
  HDAC1 activity raw data (signal): 1086586
HDAC1; peptide conc. 3.33E-06 M, listed as des4.2.0_t1
  HDAC1 activity raw data (signal): 45545
HDAC1; peptide conc. 3.33E-06 M, listed as des4.2.0_t2
  HDAC1 activity raw data (signal): 50745
HDAC1; peptide conc. 3.70E-07 M, listed as des4.2.0_t1
  HDAC1 activity raw data (signal): 212662
HDAC1; peptide conc. 3.70E-07 M, listed as des4.2.0_t2
  HDAC1 activity raw data (signal): 215699
HDAC1; peptide conc. 4.12E-08 M, listed as des4.2.0_t1
  HDAC1 activity raw data (signal): 634511
HDAC1; peptide conc. 4.12E-08 M, listed as des4.2.0_t2
  HDAC1 activity raw data (signal): 682055
HDAC1; peptide conc. 4.57E-09 M, listed as des4.2.0_t1
  HDAC1 activity raw data (signal): 995614
HDAC1; peptide conc. 4.57E-09 M, listed as des4.2.0_t2
  HDAC1 activity raw data (signal): 978150
HDAC1; peptide conc. 5.08E-10 M, listed as des4.2.0_t1
  HDAC1 activity raw data (signal): 1100683
HDAC1; peptide conc. 5.08E-10 M, listed as des4.2.0_t2
  HDAC1 activity raw data (signal): 1179300

## N=C(N)NCCC[C@@H]1NC(=O)[C@H](Cc2c[nH]c3ccccc23)NC(=O)[C@H](CC(=O)O)NC(=O)[C@@H](CO)NC(=O)[C@H](Cc2c[nH]c3ccccc23)NC(=O)[C@H](CCCCCS)NC(=O)[C@H](CCC(N)=O)NC1=O [des4.1.0, SHA-Trp-dSer-Asp-Trp-Arg-Gln] (HELM PEPTIDE1{D.W.R.Q.[O=C([C@H](CCCCCS)N[*:1])[*:2]].W.[dS]}$PEPTIDE1,PEPTIDE1,1:R1-7:R2$$$V2.0)
HDAC2 [1]; Conc. 1.00E-05 M, t1
  HDAC2 activity raw data (signal): -10519
HDAC2 [1]; Conc. 1.00E-05 M, t2
  HDAC2 activity raw data (signal): -26565
HDAC2 [1]; Conc. 1.11E-06 M, t1
  HDAC2 activity raw data (signal): 79842
HDAC2 [1]; Conc. 1.11E-06 M, t2
  HDAC2 activity raw data (signal): 48499
HDAC2 [1]; Conc. 1.23E-07 M, t1
  HDAC2 activity raw data (signal): 872533
HDAC2 [1]; Conc. 1.23E-07 M, t2
  HDAC2 activity raw data (signal): 734242
HDAC2 [1]; Conc. 1.37E-08 M, t1
  HDAC2 activity raw data (signal): 1715554
HDAC2 [1]; Conc. 1.37E-08 M, t2
  HDAC2 activity raw data (signal): 1674658
HDAC2 [1]; Conc. 1.52E-09 M, t1
  HDAC2 activity raw data (signal): 1955635
HDAC2 [1]; Conc. 1.52E-09 M, t2
  HDAC2 activity raw data (signal): 1838943
HDAC2 [1]; Conc. 3.33E-06 M, t1
  HDAC2 activity raw data (signal): 20013
HDAC2 [1]; Conc. 3.33E-06 M, t2
  HDAC2 activity raw data (signal): 16353
HDAC2 [1]; Conc. 3.70E-07 M, t1
  HDAC2 activity raw data (signal): 220224
HDAC2 [1]; Conc. 3.70E-07 M, t2
  HDAC2 activity raw data (signal): 182542
HDAC2 [1]; Conc. 4.12E-08 M, t1
  HDAC2 activity raw data (signal): 1421192
HDAC2 [1]; Conc. 4.12E-08 M, t2
  HDAC2 activity raw data (signal): 1355422
HDAC2 [1]; Conc. 4.57E-09 M, t1
  HDAC2 activity raw data (signal): 1969255
HDAC2 [1]; Conc. 4.57E-09 M, t2
  HDAC2 activity raw data (signal): 1793366
HDAC2 [1]; Conc. 5.08E-10 M, t1
  HDAC2 activity raw data (signal): 1865278
HDAC2 [1]; Conc. 5.08E-10 M, t2
  HDAC2 activity raw data (signal): 1807628
HDAC2 [2]
  IC50: 100 nM
HDAC1; peptide conc. 1.00E-05 M, listed as des4.1.0_t1
  HDAC1 activity raw data (signal): 765
HDAC1; peptide conc. 1.00E-05 M, listed as des4.1.0_t2
  HDAC1 activity raw data (signal): 43
HDAC1; peptide conc. 1.11E-06 M, listed as des4.1.0_t1
  HDAC1 activity raw data (signal): 72647
HDAC1; peptide conc. 1.11E-06 M, listed as des4.1.0_t2
  HDAC1 activity raw data (signal): 40074
HDAC1; peptide conc. 1.23E-07 M, listed as des4.1.0_t1
  HDAC1 activity raw data (signal): 531723
HDAC1; peptide conc. 1.23E-07 M, listed as des4.1.0_t2
  HDAC1 activity raw data (signal): 406309
HDAC1; peptide conc. 1.37E-08 M, listed as des4.1.0_t1
  HDAC1 activity raw data (signal): 925044
HDAC1; peptide conc. 1.37E-08 M, listed as des4.1.0_t2
  HDAC1 activity raw data (signal): 865901
HDAC1; peptide conc. 1.52E-09 M, listed as des4.1.0_t1
  HDAC1 activity raw data (signal): 1099796
HDAC1; peptide conc. 1.52E-09 M, listed as des4.1.0_t2
  HDAC1 activity raw data (signal): 1072226
HDAC1; peptide conc. 3.33E-06 M, listed as des4.1.0_t1
  HDAC1 activity raw data (signal): 17702
HDAC1; peptide conc. 3.33E-06 M, listed as des4.1.0_t2
  HDAC1 activity raw data (signal): 11850
HDAC1; peptide conc. 3.70E-07 M, listed as des4.1.0_t1
  HDAC1 activity raw data (signal): 193534
HDAC1; peptide conc. 3.70E-07 M, listed as des4.1.0_t2
  HDAC1 activity raw data (signal): 155666
HDAC1; peptide conc. 4.12E-08 M, listed as des4.1.0_t1
  HDAC1 activity raw data (signal): 733473
HDAC1; peptide conc. 4.12E-08 M, listed as des4.1.0_t2
  HDAC1 activity raw data (signal): 658176
HDAC1; peptide conc. 4.57E-09 M, listed as des4.1.0_t1
  HDAC1 activity raw data (signal): 1015864
HDAC1; peptide conc. 4.57E-09 M, listed as des4.1.0_t2
  HDAC1 activity raw data (signal): 988230
HDAC1; peptide conc. 5.08E-10 M, listed as des4.1.0_t1
  HDAC1 activity raw data (signal): 1225387
HDAC1; peptide conc. 5.08E-10 M, listed as des4.1.0_t2
  HDAC1 activity raw data (signal): 1041994
